Key:
[1] = test system: migration of Treg towards MDC (CCL22)
Procedure: The migration of T cells across polycarbonate filters (pore size 5 μm, diameter 6.5 mm) towards SDF-1 and MDC (CCL22) was assayed in 24-well Transwell chambers (Costar, Corning, Corning, N.Y.). T lymphocytes (1.67×10^6 cells/mL) were suspended in RPMI/0.1% BSA, and 150 μL of the cell suspension was added to the upper chamber after incubation with or without dopamine (90 min, 37° C.). Chemokines were added to the lower chamber at concentrations of 1 μg/mL SDF-1 (CytoLab, Israel) and 0.25 μg/mL MDC (R&D Systems). The plates were incubated for 90 min at 37° C. in 9.5% CO2. […] The numbers of migrating T cells were measured by flow cytometer acquisition for a fixed time (60 s). To calculate specific migration, the number of cells in each subpopulation in the absence of chemokine was subtracted from the number in the corresponding cell subpopulation that migrated in the presence of chemokines. The number of migrating CD4^+CD25^+ T cells was calculated as a percentage of the total T cell population before migration. For migration of purified population we used a similar protocol.
We therefore examined whether exposure to dopamine would also affect Treg migration. For this experiment we used a normal population of CD4^+ T cells, of which Treg (CD4^+CD25^+) accounts for approximately 11% (FIG. 4e).
To examine the direct effect of dopamine on the migration of Treg, we assayed the effect of dopamine on the migration of purified Treg towards MDC. The migratory Treg were stained for CD4 to ensure that cell debris and aggregates would not be counted among them.

[2] = test system: phospho-ERK1/2 in Treg and Teff; test: ERK1/2 phosphorylation (intracellular FACS staining, Western blot); assay type: cell-based, mouse
Procedure: (ix) FACS analysis of intracellular labeling of phosphorylated form of ERK. T-cell subpopulations were fixed in 1.5% formaldehyde for 10 min at room temperature, washed, resuspended with vortexing in cold 100% methanol, and incubated for 1 h at 4° C. The cells were then washed with PBS containing 1% bovine serum albumin (BSA) and resuspended in 100 μL of PBS/BSA, and 12.5 μL of anti-phosphoERK1 & 2 (BioSource) was added for 20 min at room temperature. The cells were then washed, resuspended in PBS, and analyzed by FACSCalibur (Becton-Dickinson). As a negative control we incubated the phospho-peptide for 20 min with its antibody and then added the mixture to T cells.
(xix) Western blotting. Cells were stimulated for 20 min with anti-CD3 and anti-CD28 antibodies in the presence or absence of dopamine or SKF-38393. Cell lysates were prepared using RIPA lysis buffer (50 mM Tris, pH 8; 0.1% SDS; 0.5% deoxycholate; 1% NP40; 500 mM NaCl; 10 mM MgCl2) and were then kept on ice for 10 min before being vortexed and centrifuged. Supernatants were collected and 5× sample buffer (containing 25 mM Tris pH 6.8, 2% sodium dodecyl sulfate (SDS), 10% glycerol, 0.1% bromophenol blue, 0.5 M β-mercaptoethanol) was added prior to boiling. Cell extracts were separated by SDS-PAGE (10% polyacrylamide), and blotted onto nitrocellulose. Activated ERK1/2 was detected by probing blots with a 1:30,000 dilution of monoclonal antibody. Total ERK protein was detected by using a 1:10,000 dilution of a polyclonal rabbit antibody. The blots were developed by horseradish peroxidase-conjugated anti-mouse or anti-rabbit Fab and ECL (Amersham). Signals were quantified using NIH Image 1.62.
Treg were activated for 20 min in the presence or absence of dopamine (10^−5 M), and were then subjected to intracellular phosphoprotein staining (Perez and Nolan 2002) and analyzed by flow cytometry. […] As a measure of the background nonspecific staining of the phosphorylated ERK we used a specific peptide of phospho-ERK, which competes for binding of the antibody. The intracellular staining procedure for phospho-ERK detection by FACS was validated by the use of Teff incubated with 20 μM phorbol 12-myristate 13-acetate (PMA), known to stimulate the activity of protein kinase C (PKC) (data not shown).

[3] = test system: BALB/c mice, optic nerve crush injury; conditions: 0.4 mg/kg immediately after severe optic nerve crush, two weeks later; vehicle 789±23
Source text: (iv) Retrograde labeling of retinal ganglion cells. Mice were anesthetized and placed in a stereotactic device. The skull was exposed and kept dry and clean. The bregma was identified and marked. The designated point of injection was at a depth of 2 mm from the brain surface, 2.92 mm behind the bregma in the anteroposterior axis and 0.5 mm lateral to the midline. A window was drilled in the scalp above the designated coordinates in the right and left hemispheres. The neurotracer dye FluoroGold (5% solution in saline; Fluorochrome, Denver, Colo.) was applied (1 μL, at a rate of 0.5 μL/min in each hemisphere) using a Hamilton syringe, and the skin over the wound was sutured.
(xxi) Assessment of mouse retinal ganglion cell survival. Mice were given a lethal dose of pentobarbitone (170 mg/kg). Their eyes were enucleated and the retinas were detached and prepared as flattened whole mounts in 4% paraformaldehyde solution. Labeled cells from 4-6 selected fields of identical size (0.7 mm^2) were counted. The selected fields were located at approximately the same distance from the optic disk (0.3 mm) to overcome the variation in RGC density as a function of distance from the optic disk. Fields were counted under the fluorescence microscope (magnification ×800) by observers blinded to the identity of the retinas. The average number of RGCs per field in each retina was calculated.

[4] = test system: CD44 expression in Treg and Teff
Procedure: (§1) To verify that the effect of dopamine on adhesion of Treg is exerted through the ERK1/2 pathway, we incubated Treg with the ERK1/2 signaling pathway inhibitor PD98059 before carrying out the adhesion assay. […] Since interaction of T cells with CSPG is mediated in part by the CD44 receptor (Henke et al., 1996), and in light of the known dependence of CD44 expression on the ERK signaling pathway, it was conceivable that dopamine might affect the expression of CD44 in Treg.

[5] = test system: LFA-1, I-CAM, and V-CAM in Treg; conditions: data not shown
Procedure: as §1

NCCc1ccc(O)c(O)c1 [dopamine, 3,4-dihydroxyphenethylamine]
Migration of purified Treg towards MDC [1]: almost completely abolished
Treg (CD4+CD25+) share of CD4+ cells migrating towards MDC ([1]; after exposure of CD4+ population to dopamine, 17% without dopamine): approximately 10%
Migration of Teff ([1]; data not shown): no effect
Phosphorylated ERK in activated Treg, flow cytometry ([2]; 10^−5 M, activation 20 min): Significantly less phosphorylated ERK
Phospho-ERK1/2 levels in Teff, Western blot ([2]; activation 20 min): did not cause a significant change
Phospho-ERK1/2 in activated Treg, Western blot ([2]; activation with anti-CD3 and anti-CD28 for 20 min): down-regulated
Viable neurons in retina (mean±SD) [3]: 1110±56 /mm^2
CD44 immunoreactivity in Treg ([4]; activated 24 h, 2 h with dopamine): decreased CD44 immunoreactivity
CD44 expression in Teff ([4]; after incubation with dopamine): not affected
LFA-1, I-CAM, V-CAM in Treg [5]: did not show any dopamine-related changes

Source: US20100168085A1, “Dopamine and agonists and antagonists thereof for modulation of suppressive activity of CD4+CD25+ regulatory T cells” (YESA RESEARCH AND DEVELOPMENT CO. LTD. at the Weizmann …, priority 2003, published 2010)
